“Also recorded” adds a separate entry of the source.
Key:
antibody 1D4 = test: Inhibition of 1D4 catalytic activity by hapten; type: biochemical, mouse; conditions: addition of hapten; substrate Compound 1
Description: (§1) Immunization with the KLH conjugate and generation of monoclonal antibodies were performed as described hereinafter. Twenty-six monoclonal antibodies specific for Compound 5 were assayed for catalysis. The rate of elimination of substrate Compound 1 to product Compounds 3 or 4 was assayed in the absence and presence of antibody at 37° C. Thus, a solution of antibody in 100 mM CHES buffer, pH 9.0 at 37° C., was treated with substrate Compound 1 in DMSO to provide a final solution containing […] in 15 percent aqueous DMSO, 100 mM CHES, pH 9.0. All reaction rates were determined by analytical reverse phase HPLC (Vydac-C18, 41 percent acetonitrile in H2 O/0.1 percent trifluoroacetic acid) by measuring product formation relative to 4-methyl-3-nitroanisole as a standard.
The initial rate of syn elimination by 1D4, when measured as a function of substrate Compound 1 concentrations followed Michaelis-Menten kinetics.

[1] = Background elimination and isomerization in the absence of antibody; type: physicochemical; conditions: for elimination product formed in the absence of antibody / isomerization of olefinic product under background reaction conditions: 15 percent aq DMSO, 100 mM CHES buffer; for isomerization of olefinic product under background reaction conditions: no antibody
Description: Reaction conditions: 15 percent aq DMSO, 100 mM CHES buffer, pH 9.0, 37° C.
as §1

isomerization of olefinic product under background reaction conditions ([1]; pH 9.0, 37° C.)	SMILES	elimination product formed in the absence of antibody ([1]; pH 9.0, 37° C.)	also measured
	N[C@@]1(C(=O)c2ccccc2)[C@@H]2C[C@@H](C[C@H]2OC(=O)CCC(=O)O)[C@@H]1c1ccccc1 (relative stereo) [Compound 5, (1R*,2S*,4R*,5S*,6S*)-6-Amino-6-benzoyl-5-phenylbicyclo[2.2.1]heptane-2-hemisuccinate]		inhibition of the catalytic activity of 1D4 (antibody 1D4): competitively inhibited
	C[C@@H](C(=O)c1ccccc1)[C@@H](F)c1ccccc1 (relative stereo) [Compound 1]	exclusively the trans olefin Compound 3; also recorded: only product Compound 3 was generated	first order rate constant of elimination to Compound 3 ([1]; absence of antibody, 15 percent aqueous DMSO, 100 mM CHES, pH 9.0, 37° C.): 0.000248 min⁻¹; formation of cis product Compound 4 in the absence of antibody ([1]; reaction conditions pH 9.0, 37° C.): immeasurably slow
No isomerization	C/C(=C/c1ccccc1)C(=O)c1ccccc1 [Compound 4]		
No isomerization	C/C(=C\c1ccccc1)C(=O)c1ccccc1 [Compound 3]		
	C[C@@H](C(=O)c1ccccc1)[C@H](F)c1ccccc1 (relative stereo) [Compound 2]	eliminates entirely to the trans olefin Compound 3	

Reference: US5478728A, “Process for antibody combining site-catalyzed SYN elimination in the formation of a CIS olefin” (The Scripps Research Institute, priority 1994, dated 1995)
